Reference: ChEMBL document CHEMBL4316641, “Synthesis and Anti-HIV Profile of a Novel Tetrahydroindazolylbenzamide Derivative Obtained by Oxazolone Chemistry” (ACS Med Chem Lett, 2019)
Values belong to the compound of their own block, whether it stands above or below them. Calls of active or inactive are those of the source. No cut-off for these calls is given here.

Assays:
[1] = system: Human immunodeficiency virus; experiment: Antiviral activity against HIV infected in human MT4 cells assessed as inhibition of virus-induced cytopathogenicity by MTT assay; type: functional, organism-based
[2] = system: Human immunodeficiency virus; experiment: Inhibition of reverse transcriptase in HIV1 NL4.3 infected in human HeLaP4 cells assessed as reduction in integrated provirus formation at 50 fold antiviral EC50 incubated up to 60 mins by quantitative PCR analysis; type: cell-based
[3] = target: Human immunodeficiency virus type 1 integrase (Human immunodeficiency virus 1) (UniProt Q7ZJM1); experiment: Inhibition of HIV integrase strand transfer activity
Human immunodeficiency virus type 1 integrase (Human immunodeficiency virus 1), sequence (Q7ZJM1 as listed by the source): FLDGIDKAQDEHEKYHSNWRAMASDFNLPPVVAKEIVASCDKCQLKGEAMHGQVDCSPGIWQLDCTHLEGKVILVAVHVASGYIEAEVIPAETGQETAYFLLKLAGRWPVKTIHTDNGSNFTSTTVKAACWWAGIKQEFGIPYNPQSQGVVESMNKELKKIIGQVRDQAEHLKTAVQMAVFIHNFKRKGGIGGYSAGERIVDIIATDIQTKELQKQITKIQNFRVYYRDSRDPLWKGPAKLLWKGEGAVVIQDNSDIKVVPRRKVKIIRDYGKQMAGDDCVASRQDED

[4] = system: Human immunodeficiency virus; experiment: Inhibition of reverse transcriptase in HIV1 NL4.3 infected in human HeLaP4 cells assessed as reduction in formation of reverse transcribed DNA at 50 fold antiviral EC50 incubated up to 60 mins by quantitative PCR analysis; type: cell-based
[5] = system: Human immunodeficiency virus; experiment: Inhibition of reverse transcriptase in HIV1 NL4.3 infected in human HeLaP4 cells assessed as reduction in formation of 2-LTRs at 50 fold antiviral EC50 incubated up to 60 mins by quantitative PCR analysis; type: cell-based
[6] = system: Human immunodeficiency virus; experiment: Inhibition of reverse transcriptase in HIV1 NL4.3 infected in human HeLaP4 cells assessed as reduction in late reverse transcription by time of addition assay; type: cell-based
[7] = Cytotoxicity against human MT4 cells assessed as reduction in cell viability by MTT assay; type: cell-based
[8] = target: Human immunodeficiency virus type 1 integrase (Human immunodeficiency virus 1) (UniProt Q7ZJM1); experiment: Inhibition of integrase in HIV1 NL4.3 infected in human HeLaP4 cells assessed as increase in increase in 2-LTR circles at 50 fold antiviral EC50 incubated up to 60 mins by quantitative PCR analysis; type: cell-based
[9] = Selectivity index, ratio of CC50 for cytotoxicity against human MT4 cells assessed as reduction in cell viability by MTT assay to EC50 for antiviral activity against HIV infected in human MT4 cells assessed as inhibition of virus-induced cytopathogenicity by MTT assay; type: toxicity, cell-based; conditions: read-out: Ratio CC50/EC50

Compound: CC(N)c1nn(-c2ccc(C(=O)O)cc2)c2c1C(=O)CC(C)(C)C2.Cl (racemic)
- EC50 [1]: Not Active

- inhibition [3]: inactive
- inhibition [8]: inactive
Compound: CC(NC(=O)c1ccccc1)c1nn(-c2ccc(C(N)=O)cc2)c2c1C(=O)CC(C)(C)C2 (racemic)
- inhibition [2]: Active
- inhibition [4]: Active
- inhibition [5]: Active
- EC50 ([1]; Human immunodeficiency virus 1, MT4, read-out: EC50): 2770 nM
- inhibition [6]: Active
- CC50 [7]: 119 µM
- selectivity ratio [9]: 68

Compound: CC(NC(=O)c1ccccc1)c1nn(-c2ccc(C#N)cc2)c2c1C(=O)CC(C)(C)C2 (racemic)
- EC50 [1]: Not Active

Compound: Cc1cn([C@H]2C[C@H](N=[N+]=[N-])[C@@H](CO)O2)c(=O)[nH]c1=O
- inhibition [4]: Active
